Values of other authors, collected in patent US20220296511A1, “COMPOSITIONS FOR DELIVERY OF DRUG COMBINATIONS TO TREAT LUNG DISEASE” (BOARD OF REGENTS, THE UNIVERSITY OF TEXAS SYSTEM, priority 2021, published 2022).
Like-named read-outs stand apart in the source and are kept apart here. Values belong to the compound of their own block, whether it stands above or below them.

Experiments:
[1] = not given; remark: listed apart in the source
[2] = not given; remark: listed apart in the source
[3] = rats, 50 mg/mL MFF suspension for nebulization
[4] = phase 3 trial
[5] = 150 mg oral dose

- aerosol epithelial lining fluid (ELF) concentration relative to 801 mg oral (100 mg aerosol pirfenidone): 35 times
- systemic exposure less than the oral delivery (100 mg inhalation dose): 15 fold
- plasma concentration ([1]; 801 mg oral dose): 5000 ng/mL
- lung concentration ([1]; 801 mg oral dose, worked out from plasma concentration): 0.7 µg/g
- lung tissue concentration as percentage of plasma concentration ([1]; IV dose 40 mg/kg): nine
- pirfenidone decreased by food ([1]; oral): 50%
SMILES: Cc1ccc(=O)n(-c2ccccc2)c1 [pirfenidone]

- therapeutic range ([2]; in vivo): 1.0 to 3.5 µg/mL
- maximum plasma concentration decreased by food ([2]; oral): 40%
- lung concentration of mycophenolic acid as % of serum concentration [3]: ~30%
SMILES: COc1c(C)c2c(c(O)c1C/C=C(\C)CCC(=O)O)C(=O)OC2 [mycophenolic acid]

- half-life [5]: 9.49 h
- plasma concentration [5]: 0.12 ng/mL/mg
SMILES: COC(=O)c1ccc2c(c1)NC(=O)/C2=C(\Nc1ccc(N(C)C(=O)CN2CCN(C)CC2)cc1)c1ccccc1 [nintedanib]
- diarrhea reported ([4]; most common adverse reaction): 66.9%
- reduction of FVC ([4]; nintedanib group): −80.0 mL per year
